Assay results: ChEMBL document CHEMBL1201862, “PubChem BioAssay data set” (2004)
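Tested at 5 concentrations; 48 h exposure; 96-well plates; endpoints linearly interpolated, else capped at highest concentration. GI50 marks 50% less growth.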 Calls of active or inactive are those of the source. Cut-off read from the data, not from the text of the source: active = GI50 up to about 1.1 µM and inactive = higher.

Assays:
Test in all cases: inhibition of tumour cell growth, NCI panel, 48 h
OVCAR-8 = system: OVCAR-8
IGROV-1 = system: IGROV-1
LOX IMVI = system: LOX IMVI
SR = system: SR
NCI-H460 = system: NCI-H460
MDA-MB-435 = system: MDA-MB-435
HCT-116 = system: HCT-116
SK-MEL-5 = system: SK-MEL-5
T47D = system: T47D
SF-539 = system: SF-539
SN12C = system: SN12C
A498 = system: A498
HT-29 = system: HT-29
SNB-19 = system: SNB-19
CAKI-1 = system: CAKI-1
CCRF-CEM = system: CCRF-CEM
OVCAR-5 = system: OVCAR-5
A549 = system: A549
EKVX = system: EKVX
OVCAR-3 = system: OVCAR-3
SF-295 = system: SF-295
SK-MEL-2 = system: SK-MEL-2
HCT-15 = system: HCT-15
HOP-92 = system: HOP-92
SK-OV-3 = system: SK-OV-3
RXF 393 = system: RXF 393
K562 = system: K562
COLO 205 = system: COLO 205
HCC 2998 = system: HCC 2998
U-251 = system: U-251
UO-31 = system: UO-31
NCI-H522 = system: NCI-H522
NCI-H23 = system: NCI-H23
PC-3 = system: PC-3
MOLT-4 = system: MOLT-4
ACHN = system: ACHN
NCI/ADR-RES = system: NCI/ADR-RES
Malme-3M = system: Malme-3M
UACC-62 = system: UACC-62
Hs-578T = system: Hs-578T
MCF7 = system: MCF7
NCI-H226 = system: NCI-H226
KM12 = system: KM12
DU-145 = system: DU-145
HL-60 = system: HL-60
786-0 = system: 786-0
HOP-62 = system: HOP-62
MDA-N = system: MDA-N
SW-620 = system: SW-620
M14 = system: M14
OVCAR-4 = system: OVCAR-4
RPMI-8226 = system: RPMI-8226
TK-10 = system: TK-10
SNB-75 = system: SNB-75
SK-MEL-28 = system: SK-MEL-28
SF-268 = system: SF-268
BT-549 = system: BT-549
MDA-MB-231 = system: MDA-MB-231
UACC-257 = system: UACC-257

## O=C(N/N=C/C=C/c1ccc([N+](=O)[O-])o1)c1ccc(C(=O)N/N=C/C=C/c2ccc([N+](=O)[O-])o2)cc1
OVCAR-8
  GI50: 13.2 µM (inactive)
IGROV-1
  GI50: 46.8 µM (inactive)
LOX IMVI
  GI50: 28.1 µM (inactive)
SR
  GI50: 17.3 µM (inactive)
NCI-H460
  GI50: > 40.8 µM (inactive)
MDA-MB-435
  GI50: 37.2 µM (inactive)
HCT-116
  GI50: 12.7 µM (inactive)
SK-MEL-5
  GI50: 22.4 µM (inactive)
T47D
  GI50: > 40.1 µM (inactive)
SF-539
  GI50: 6.18 µM (inactive)
SN12C
  GI50: > 37.9 µM (inactive)
A498
  GI50: > 100 µM (inactive)
HT-29
  GI50: 72.9 µM (inactive)
SNB-19
  GI50: 43.3 µM (inactive)
CAKI-1
  GI50: 38.6 µM (inactive)
CCRF-CEM
  GI50: 1.93 µM (inactive)
OVCAR-5
  GI50: > 100 µM (inactive)
A549
  GI50: > 100 µM (inactive)
EKVX
  GI50: > 100 µM (inactive)
OVCAR-3
  GI50: 31.7 µM (inactive)
SF-295
  GI50: > 85.5 µM (inactive)
SK-MEL-2
  GI50: > 69.2 µM (inactive)
HCT-15
  GI50: 37.4 µM
HOP-92
  GI50: > 62.8 µM (inactive)
SK-OV-3
  GI50: > 100 µM (inactive)
RXF 393
  GI50: 25.9 µM (inactive)
K562
  GI50: 33.1 µM (inactive)
COLO 205
  GI50: 36 µM (inactive)
HCC 2998
  GI50: 12.9 µM (inactive)
U-251
  GI50: 17.3 µM (inactive)
UO-31
  GI50: > 67.6 µM (inactive)
NCI-H522
  GI50: 24.3 µM (inactive)
NCI-H23
  GI50: 49.8 µM (inactive)
PC-3
  GI50: > 30.5 µM (inactive)
MOLT-4
  GI50: 5.42 µM (inactive)
ACHN
  GI50: 32.6 µM (inactive)
NCI/ADR-RES
  GI50: 36.7 µM (inactive)
Malme-3M
  GI50: 12.7 µM (inactive)
UACC-62
  GI50: > 86.3 µM (inactive)
Hs-578T
  GI50: > 100 µM (inactive)
MCF7
  GI50: 34.4 µM (inactive)
NCI-H226
  GI50: > 100 µM (inactive)
KM12
  GI50: > 100 µM (inactive)
DU-145
  GI50: > 47 µM (inactive)
HL-60
  GI50: 19.8 µM (inactive)
786-0
  GI50: 20.1 µM (inactive)
HOP-62
  GI50: 46.7 µM (inactive)
MDA-N
  GI50: 29.5 µM (inactive)
SW-620
  GI50: 19.1 µM (inactive)
M14
  GI50: 14.8 µM (inactive)
OVCAR-4
  GI50: > 72.3 µM (inactive)
RPMI-8226
  GI50: 7.62 µM (inactive)
TK-10
  GI50: 31.8 µM (inactive)
SNB-75
  GI50: > 100 µM (inactive)
SK-MEL-28
  GI50: 57 µM (inactive)
SF-268
  GI50: 15.8 µM (inactive)
BT-549
  GI50: > 100 µM (inactive)

## COC(C)(C)OCCN1CCN(CCN2C3=C(C=C(C(C)=O)C3)Sc3ccccc32)CC1
OVCAR-8
  GI50: 20.9 µM (inactive)
IGROV-1
  GI50: 20 µM (inactive)
LOX IMVI
  GI50: 20.7 µM (inactive)
MDA-MB-231
  GI50: 22.3 µM (inactive)
SR
  GI50: 15.6 µM (inactive)
NCI-H460
  GI50: 18.8 µM (inactive)
MDA-MB-435
  GI50: 16 µM (inactive)
HCT-116
  GI50: 18 µM (inactive)
SK-MEL-5
  GI50: 17.5 µM (inactive)
T47D
  GI50: 23.9 µM (inactive)
SF-539
  GI50: 20.1 µM (inactive)
SN12C
  GI50: 26.7 µM (inactive)
A498
  GI50: 17.6 µM (inactive)
HT-29
  GI50: 18 µM (inactive)
SNB-19
  GI50: 32.1 µM (inactive)
CAKI-1
  GI50: 19.2 µM (inactive)
CCRF-CEM
  GI50: 15.2 µM (inactive)
OVCAR-5
  GI50: 25.4 µM (inactive)
A549
  GI50: 32.6 µM (inactive)
EKVX
  GI50: 42.1 µM (inactive)
OVCAR-3
  GI50: 22.2 µM (inactive)
SF-295
  GI50: 19.5 µM (inactive)
SK-MEL-2
  GI50: 20.2 µM (inactive)
HCT-15
  GI50: 19.6 µM
HOP-92
  GI50: 29.5 µM (inactive)
SK-OV-3
  GI50: 35.8 µM (inactive)
RXF 393
  GI50: 17.9 µM (inactive)
K562
  GI50: 15 µM (inactive)
COLO 205
  GI50: 17.6 µM (inactive)
HCC 2998
  GI50: 20.4 µM (inactive)
U-251
  GI50: 18.5 µM (inactive)
UO-31
  GI50: 25.1 µM (inactive)
NCI-H522
  GI50: 17.5 µM (inactive)
NCI-H23
  GI50: 27.2 µM (inactive)
PC-3
  GI50: 24.8 µM (inactive)
MOLT-4
  GI50: 17.3 µM (inactive)
ACHN
  GI50: 18.1 µM (inactive)
NCI/ADR-RES
  GI50: 20.7 µM (inactive)
UACC-257
  GI50: 20.3 µM (inactive)
Malme-3M
  GI50: 21.3 µM (inactive)
UACC-62
  GI50: 15.3 µM (inactive)
Hs-578T
  GI50: 15.8 µM (inactive)
NCI-H226
  GI50: 22.9 µM (inactive)
KM12
  GI50: 16.7 µM (inactive)
DU-145
  GI50: 21.8 µM (inactive)
HL-60
  GI50: 16.6 µM (inactive)
786-0
  GI50: 19.1 µM (inactive)
HOP-62
  GI50: 19.4 µM (inactive)
MDA-N
  GI50: 19 µM (inactive)
SW-620
  GI50: 17.5 µM (inactive)
M14
  GI50: 20.3 µM (inactive)
OVCAR-4
  GI50: 28.6 µM (inactive)
RPMI-8226
  GI50: 14.3 µM (inactive)
TK-10
  GI50: 19.2 µM (inactive)
SNB-75
  GI50: 30.5 µM (inactive)
SK-MEL-28
  GI50: 16.4 µM (inactive)
SF-268
  GI50: 19.6 µM (inactive)
BT-549
  GI50: 21.6 µM (inactive)
